From ChEMBL document CHEMBL1126154, “Pyrrole mannich bases as potential antipsychotic agents” (J Med Chem, 1992)
pKi: −log10 of the molar value.

Experiments:
[1] = molecular target: T1, Serotonin 1 (5-HT1) receptor (Rattus norvegicus, UniProt P28564+P30940+P19327+P28565); test: The compound was tested for its binding affinity towards 5-hydroxytryptamine 1 receptor by displacing [3H]5-HT radioligand in rat cerebral cortex; type: tissue-based
[2] = molecular target: Serotonin 2 (5-HT2) receptor (Rattus norvegicus, UniProt P30994+P08909+P14842); test: The compound was tested for its binding affinity towards 5-hydroxytryptamine 2 receptor by displacing [3H]ketanserin radioligand in rat cerebral cortex; type: tissue-based
[3] = molecular target: T2, Adrenergic receptor alpha-1 (Rattus norvegicus, UniProt P15823+P23944+P43140); test: The compound was tested for its binding affinity towards Alpha-1 adrenergic receptor by displacing [3H]WB-4101 radioligand in rat cerebral cortex; type: tissue-based
T2 sequence (P15823 whole entry): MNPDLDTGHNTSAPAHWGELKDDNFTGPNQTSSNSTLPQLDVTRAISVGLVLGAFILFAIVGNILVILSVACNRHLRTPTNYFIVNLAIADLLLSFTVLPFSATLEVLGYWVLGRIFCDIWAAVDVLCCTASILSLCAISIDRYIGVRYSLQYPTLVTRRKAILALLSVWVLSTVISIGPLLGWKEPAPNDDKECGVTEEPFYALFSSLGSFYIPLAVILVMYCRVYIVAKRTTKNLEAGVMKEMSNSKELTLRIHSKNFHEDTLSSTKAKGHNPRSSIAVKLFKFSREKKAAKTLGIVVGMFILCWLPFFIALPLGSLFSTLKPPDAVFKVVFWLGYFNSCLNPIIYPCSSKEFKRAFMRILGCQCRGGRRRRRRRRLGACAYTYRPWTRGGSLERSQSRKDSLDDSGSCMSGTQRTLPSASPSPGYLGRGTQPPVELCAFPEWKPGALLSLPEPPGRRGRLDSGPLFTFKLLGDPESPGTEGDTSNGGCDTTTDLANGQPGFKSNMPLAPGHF
T2 sequence (P23944 whole entry): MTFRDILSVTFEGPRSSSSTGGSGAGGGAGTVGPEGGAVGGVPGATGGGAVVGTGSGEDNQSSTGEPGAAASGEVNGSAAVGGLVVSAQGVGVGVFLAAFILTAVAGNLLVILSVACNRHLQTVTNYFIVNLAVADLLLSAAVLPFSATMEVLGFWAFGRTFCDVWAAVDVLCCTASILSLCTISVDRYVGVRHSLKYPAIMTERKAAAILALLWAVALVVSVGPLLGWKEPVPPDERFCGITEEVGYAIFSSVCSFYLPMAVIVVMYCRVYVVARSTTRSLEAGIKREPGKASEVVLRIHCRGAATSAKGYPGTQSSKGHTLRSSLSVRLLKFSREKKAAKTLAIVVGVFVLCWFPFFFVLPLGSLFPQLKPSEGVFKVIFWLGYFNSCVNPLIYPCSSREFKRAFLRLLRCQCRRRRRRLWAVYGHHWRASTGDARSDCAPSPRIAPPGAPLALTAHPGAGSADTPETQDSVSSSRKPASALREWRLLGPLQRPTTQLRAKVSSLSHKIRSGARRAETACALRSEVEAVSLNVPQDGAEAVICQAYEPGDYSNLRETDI
T2 sequence (P43140 whole entry): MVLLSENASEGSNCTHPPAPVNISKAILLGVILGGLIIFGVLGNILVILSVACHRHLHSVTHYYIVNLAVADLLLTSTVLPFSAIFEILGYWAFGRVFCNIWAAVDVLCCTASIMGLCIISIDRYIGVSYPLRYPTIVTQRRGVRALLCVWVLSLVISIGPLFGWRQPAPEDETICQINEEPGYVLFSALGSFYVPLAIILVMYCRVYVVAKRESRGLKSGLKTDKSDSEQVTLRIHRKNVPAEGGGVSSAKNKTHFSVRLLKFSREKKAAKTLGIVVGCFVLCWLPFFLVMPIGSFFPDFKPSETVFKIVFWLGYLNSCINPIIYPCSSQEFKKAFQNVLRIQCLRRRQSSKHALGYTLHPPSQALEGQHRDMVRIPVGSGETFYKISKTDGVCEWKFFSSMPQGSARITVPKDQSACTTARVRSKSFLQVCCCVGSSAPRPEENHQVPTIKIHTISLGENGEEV

Rattus norvegicus [4] = test: The percentage production of catalepsy in rat at a dose of 57 mg/kg ip.; type: functional
Rattus norvegicus [5] = test: Antipsychotic activity at a dose 10 times the ED50 value for CAR block for production of catalepsy in the rat (following i.p. dosing); type: functional; conditions: ip
Rattus norvegicus [6] = test: The compound was measured at a dose 10 times the ED50 value for CAR block for production of catalepsy in the rat via oral administration.; type: functional
Rattus norvegicus [7] = test: The percentage production of catalepsy in rat at a dose of 100 mg/kg ip.; type: functional
[8] = molecular target: T3, 5-hydroxytryptamine receptor 1A (Rattus norvegicus, UniProt P19327); test: Binding affinity towards 5-hydroxytryptamine 1A receptor by displacing [3H]WB-4101 from rat hippocampus; type: tissue-based
T3 sequence (P19327 whole entry): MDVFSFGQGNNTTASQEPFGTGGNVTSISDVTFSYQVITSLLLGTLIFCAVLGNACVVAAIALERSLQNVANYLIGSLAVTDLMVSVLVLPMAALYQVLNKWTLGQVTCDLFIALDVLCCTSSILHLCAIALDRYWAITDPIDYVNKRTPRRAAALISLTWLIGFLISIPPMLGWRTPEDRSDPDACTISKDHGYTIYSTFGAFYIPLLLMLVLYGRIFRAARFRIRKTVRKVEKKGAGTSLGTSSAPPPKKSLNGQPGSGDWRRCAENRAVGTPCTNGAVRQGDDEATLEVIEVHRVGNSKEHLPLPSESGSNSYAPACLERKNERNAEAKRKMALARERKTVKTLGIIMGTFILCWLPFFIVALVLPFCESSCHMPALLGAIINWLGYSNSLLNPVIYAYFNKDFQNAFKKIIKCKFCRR

[9] = molecular target: 5-hydroxytryptamine receptor 1B (Rattus norvegicus, UniProt P28564); test: The compound was tested for its binding affinity towards 5-hydroxytryptamine 1B receptor by displacing [3H]serotonin radioligand in rat cerebral cortex; type: tissue-based
Rattus norvegicus [10] = test: The percentage production of catalepsy in rat at a dose of 37 mg/kg ip.; type: functional
Rattus norvegicus [11] = test: The percentage production of catalepsy in rat at a dose of 58 mg/kg ip.; type: functional
Rattus norvegicus [12] = test: The percentage production of catalepsy in rat at a dose of 50 mg/kg ip.; type: functional
Rattus norvegicus [13] = test: The percentage production of catalepsy in rat at a dose of 90 mg/kg ip.; type: functional
Rattus norvegicus [14] = test: The percentage production of catalepsy in rat at a dose of 27 mg/kg ip.; type: functional
Rattus norvegicus [15] = test: The percentage production of catalepsy in rat at a dose of 40 mg/kg ip.; type: functional
Rattus norvegicus [16] = test: The percentage production of catalepsy in rat at a dose of 20 mg/kg ip.; type: functional
Rattus norvegicus [17] = organism: Rattus norvegicus; test: ED50 value for catalepsy indicates the dose required to produce a 50% of maximum catalepsy score. parentheses; type: functional
Rattus norvegicus [18] = organism: Rattus norvegicus; test: ED50 value for catalepsy indicates the dose required to produce a 50% of maximum catalepsy score. parentheses value indicate 95% confidence limit.; type: functional
[19] = molecular target: T1, Serotonin 1 (5-HT1) receptor
Description: The binding affinity was measured on serotonin 5-hydroxytryptamine 1 receptor in rat brain tissue

[20] = molecular target: T3, 5-hydroxytryptamine receptor 1A; test: biochemical
Description: The compound was tested for its binding affinity towards 5-hydroxytryptamine 1A receptor by displacing [3H]WB-4101 radioligand in rat hippocampus

Rattus norvegicus [21] = organism: Rattus norvegicus; test: ED50 value for catalepsy indicates the dose required to produce a 50% of maximum catalepsy score.; type: functional
Rattus norvegicus [22] = test: The percentage production of catalepsy in rat at a dose of 70 mg/kg ip.; type: functional
Rattus norvegicus [23] = test: The percentage production of catalepsy in rat at a dose of 4 mg/kg ip.; type: functional
Rattus norvegicus [24] = organism: Rattus norvegicus; test: The compound was measured at a dose 10 times the ED50 value for CAR block for production of catalepsy in the rat; type: functional, organism-based
Rattus norvegicus [25] = organism: Rattus norvegicus; test: ED50 value for catalepsy indicates the dose required to produce a 50% of maximum catalepsy score; type: functional, organism-based
D(2) dopamine receptor = D(2) dopamine receptor (Rattus norvegicus, UniProt P61169); test: The compound was tested for its binding affinity towards Dopamine receptor D2 by displacing [3H]spiperone radioligand in rat striatum
Rattus norvegicus [26] = test: The percentage production of catalepsy in rat at a dose of 54 mg/kg ip.; type: functional
[27] = Rattus norvegicus, po, read-out: ED50

Sequence of 5-hydroxytryptamine receptor 1B (P28564 whole entry): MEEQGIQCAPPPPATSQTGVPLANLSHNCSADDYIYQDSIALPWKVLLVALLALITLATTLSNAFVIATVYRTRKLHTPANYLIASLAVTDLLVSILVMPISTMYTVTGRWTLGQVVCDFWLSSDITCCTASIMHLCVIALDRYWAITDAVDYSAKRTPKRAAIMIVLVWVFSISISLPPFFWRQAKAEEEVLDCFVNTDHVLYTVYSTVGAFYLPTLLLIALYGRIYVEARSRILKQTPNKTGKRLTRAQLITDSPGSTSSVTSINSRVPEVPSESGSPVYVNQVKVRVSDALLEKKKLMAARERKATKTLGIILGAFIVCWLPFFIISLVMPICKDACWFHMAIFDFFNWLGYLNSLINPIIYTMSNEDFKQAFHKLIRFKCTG
Sequence of D(2) dopamine receptor (P61169 whole entry): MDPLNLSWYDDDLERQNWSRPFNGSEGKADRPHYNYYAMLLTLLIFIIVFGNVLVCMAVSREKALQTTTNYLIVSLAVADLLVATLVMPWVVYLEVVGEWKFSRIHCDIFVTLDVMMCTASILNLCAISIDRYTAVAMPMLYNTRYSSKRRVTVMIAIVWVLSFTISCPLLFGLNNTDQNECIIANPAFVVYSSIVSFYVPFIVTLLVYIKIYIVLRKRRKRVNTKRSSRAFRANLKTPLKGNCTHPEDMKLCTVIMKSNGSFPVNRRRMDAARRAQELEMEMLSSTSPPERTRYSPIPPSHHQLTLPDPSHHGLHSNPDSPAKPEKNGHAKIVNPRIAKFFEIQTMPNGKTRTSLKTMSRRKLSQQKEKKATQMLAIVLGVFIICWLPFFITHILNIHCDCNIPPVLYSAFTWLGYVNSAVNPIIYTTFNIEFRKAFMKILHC

Compound | Ki [1] | Ki [2] | Ki [3] | ED50 (Rattus norvegicus [5]) | ED50 (Rattus norvegicus [6]; [27]) | also measured
CC(C)Oc1ccccc1N1CCN(Cc2ccc(CN3CCCCCC3=O)n2C)CC1 | 68.8 nM | 1000 nM | 16.3 nM | 5.7 mg/kg | 18.9 mg/kg | % catalepsy at 57 mg/kg (Rattus norvegicus [4]): 26%
CC(C)c1ccccc1N1CCN(Cc2ccc(CN3CCCCCC3=O)n2C)CC1 | 82.1 nM | 110 nM | 53.9 nM | 10 mg/kg | > 30 mg/kg | % catalepsy at 100 mg/kg (Rattus norvegicus [7]): 17%
CCC(C)Oc1ccccc1N1CCN(Cc2ccc(CN3CCCCC3=O)n2C)CC1 (stereo not drawn) | 29.3 nM | 267 nM | 17.4 nM | 3.7 mg/kg | – | pKi [8]: 8.74; pKi [9]: 7.35; % catalepsy at 37 mg/kg (Rattus norvegicus [10]): 17%
Cn1c(CN2CCN(c3cccc(C(F)(F)F)c3)CC2)ccc1CN1CCCC1=O | 156 nM | 1000 nM | > 1000 nM | 5.8 mg/kg | – | % catalepsy at 58 mg/kg (Rattus norvegicus [11]): 56%
Cn1c(CN2CCN(c3cccc(Cl)c3)CC2)ccc1CN1CCCCC1=O | – | – | – | 10.4 mg/kg | – | pKi [9]: 7.02; % catalepsy at 50 mg/kg (Rattus norvegicus [12]): 28%
CC(C)c1ccccc1N1CCN(Cc2ccc(CN3CCCCC3=O)n2C)CC1 | 41.3 nM | 137 nM | – | 8.9 mg/kg | > 30 mg/kg | % catalepsy at 90 mg/kg (Rattus norvegicus [13]): 19%
CC(C)Oc1ccccc1N1CCN(Cc2ccc(CN3CCCC3=O)n2C)CC1 | 120 nM | 386 nM | 7.3 nM | 2.2 mg/kg | > 20 mg/kg | % catalepsy at 27 mg/kg (Rattus norvegicus [14]): 52%
CC(C)Oc1ccccc1N1CCN(Cc2ccc(CN3CCCCCCC3=O)n2C)CC1 | 18.1 nM | 260 nM | 20.8 nM | 4 mg/kg | > 30 mg/kg | pKi [8]: 8.77; pKi [9]: 7.12; % catalepsy at 40 mg/kg (Rattus norvegicus [15]): 4.2%
CCOc1ccccc1N1CCN(Cc2ccc(CN3CCCC3=O)n2C)CC1 | 76 nM | 455 nM | 27.5 nM | 1.8 mg/kg | 32 mg/kg | % catalepsy at 20 mg/kg (Rattus norvegicus [16]): 97%
COc1ccccc1N1CCNCC1 | 28 nM | > 100 nM | – | 5.6 mg/kg | – | ED50 (Rattus norvegicus [17]): > 45 mg/kg
CN(C)CCCN1c2ccccc2Sc2ccc(Cl)cc21 [CHLORPROMAZINE] | – | – | – | 1.9 mg/kg | – | ED50 (Rattus norvegicus [18]): 9.4 mg/kg; Ki [19]: > 1000 nM; pKi [20]: 6.75
CN1CCN(C2=Nc3cc(Cl)ccc3Nc3ccccc32)CC1 [CLOZAPINE] | – | – | – | – | 32.5 mg/kg | ED50 (Rattus norvegicus [21]): > 70 mg/kg; % catalepsy at 70 mg/kg (Rattus norvegicus [22]): 10%
Cc1nc2n(c(=O)c1CCN1CCC(c3noc4cc(F)ccc34)CC1)CCCC2 [RISPERIDONE] | – | – | – | – | 2.2 mg/kg | % catalepsy at 4 mg/kg (Rattus norvegicus [23]): 50%; ED50 (Rattus norvegicus [24]): 0.32 mg/kg; ED50 (Rattus norvegicus [25]): 3.5 mg/kg
Cc1nc2sccn2c(=O)c1CCN1CCC(=C(c2ccc(F)cc2)c2ccc(F)cc2)CC1 [RITANSERIN] | – | – | 49.5 nM | > 3 mg/kg | – | pKi (D(2) dopamine receptor): 7.27
CC(C)Oc1ccccc1N1CCN(Cc2ccc(CN3CCCCC3=O)n2C)CC1 [RWJ-25730] | – | 1006 nM | – | – | – | % catalepsy at 54 mg/kg (Rattus norvegicus [26]): 12.1%; ED50 (Rattus norvegicus [6]): 10.4 mg/kg
